Experiment [1] concerns the target T1, glutathione S-transferase (GST)-fused full-length human Syk protein (Homo sapiens, UniProt P43405).
T1 construct: (GST)-fused full-length human Syk protein; GST (glutathione S-transferase); purchased Carna Biosciences
Put plainly: Syk enzyme assay. It counts as biochemical. The settings on record: Syk enzyme assay, Test Example 1; read-out: IC50 of Syk-inhibitory activity. In a few lines:
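Baculovirus-expressed enzyme (1.2 ng) was preincubated with compound in HEPES pH 7.0/MgCl2/DTT buffer, 2 min shaking then 13 min at room temperature. Biotin-EDPDYEWPSA-NH2 (0.4 μM final) and ATP (27 μM final) were added for 40 min at room temperature. EDTA stop, streptavidin-XL/PT66-K TR-FRET at 615/665 nm gave IC50.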

For the next experiment, the system named is THP-1 cells. Put plainly: TNFα generation assay. In kind it is cell-based, human. To be noted: Homo sapiens, THP-1, THP-1 cells; Table 22; read-out: IC50 in TNFα generation assay. The gist of the method: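 THP-1 cells differentiated to macrophage-like cells with 10 ng/ml IFN-γ for 2 days, preincubated with compound 30 min at room temperature, then cultured 7 h on plates coated with human IgG (10 μg/ml). Secreted TNFα measured by ELISA or AlphaLISA.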

`CCCC[C@@H](Nc1nc(Nc2cncc(C3CC3)c2)c(C(N)=O)cc1F)[C@H](C)N` [Example 006-408, 6-(((2S,3R)-2-aminoheptan-3-yl)amino)-2-((5-cyclopropylpyridin-3-yl)amino)-5-fluoronicotinamide]: the figures for the IC50 (in experiment [1]; in the experiment with THP-1 cells) were < 10 nM and 130 to 200 nM, respectively.
In the case of `COc1cc(Nc2nc(N[C@H](CC(C)C)[C@H](C)N)c(F)cc2C(N)=O)cc(OC)n1` [Example 006-409, 6-(((2S,3R)-2-amino-5-methylhexan-3-yl)amino)-2-((2,6-dimethoxypyridin-4-yl)amino)-5-fluoronicotinamide], the IC50 is < 10 nM in experiment [1] and 130 to 200 nM in the experiment on THP-1 cells.
With `COc1cc(Nc2nc(N[C@H](CC(C)C)[C@H](C)N)c(F)cc2C(N)=O)ccn1` [Example 006-410, 6-(((2S,3R)-2-amino-5-methylhexan-3-yl)amino)-5-fluoro-2-((2-methoxypyridin-4-yl)amino)nicotinamide], the IC50 was < 10 nM in experiment [1] and 65 to 130 nM in the experiment on THP-1 cells.
In the same order, the values of `COCCOc1cc(Nc2nc(N[C@H](CC(C)C)[C@H](C)N)c(F)cc2C(N)=O)ccn1` [Example 006-411, 6-(((2S,3R)-2-amino-5-methylhexan-3-yl)amino)-5-fluoro-2-((2-(2-methoxyethoxy)pyridin-4-yl)amino)nicotinamide] are < 10 nM and 130 to 200 nM.
As for `CC(C)C[C@@H](Nc1nc(Nc2cncc(C3CC3)c2)c(C(N)=O)cc1F)[C@H](C)N` [Example 006-412, 6-(((2S,3R)-2-amino-5-methylhexan-3-yl)amino)-2-((5-cyclopropylpyridin-3-yl)amino)-5-fluoronicotinamide], the IC50 is < 10 nM in experiment [1] and 130 to 200 nM in the experiment on THP-1 cells.
In the same order, the values of `CCCC[C@H](CN)Nc1nc(Nc2ccc3c(cnn3CCF)c2)c(C(N)=O)cc1F` [Example 006-414, (R)-6-((1-aminohexan-2-yl)amino)-5-fluoro-2-((1-(2-fluoroethyl)-1H-indazol-5-yl)amino)nicotinamide] are < 10 nM and 65 to 130 nM.
Consider `CC(C)C[C@H](CN)Nc1nc(Nc2ccc3c(cnn3CCF)c2)c(C(N)=O)cc1F` [Example 006-415, (R)-6-((1-amino-4-methylpentan-2-yl)amino)-5-fluoro-2-((1-(2-fluoroethyl)-1H-indazol-5-yl)amino)nicotinamide], for which the IC50 is < 10 nM in experiment [1] and 65 to 130 nM in the experiment with THP-1 cells.
On to `CC[C@@H](Nc1nc(Nc2ccc3c(cnn3CCF)c2)c(C(N)=O)cc1F)[C@H](C)N` [Example 006-416, 6-(((2S,3R)-2-aminopentan-3-yl)amino)-5-fluoro-2-((1-(2-fluoroethyl)-1H-indazol-5-yl)amino)nicotinamide], for which the results for the IC50 (in experiment [1]; in the experiment on THP-1 cells) were < 10 nM and 65 to 130 nM, respectively.
Take `CCC[C@@H](Nc1nc(Nc2ccc3c(cnn3CCF)c2)c(C(N)=O)cc1F)[C@H](C)N` [Example 006-417, 6-(((2S,3R)-2-aminohexan-3-yl)amino)-5-fluoro-2-((1-(2-fluoroethyl)-1H-indazol-5-yl)amino)nicotinamide]: the IC50 in experiment [1] was < 10 nM; with THP-1 cells, 65 to 130 nM.
In the same order, the values of `CCCC[C@@H](Nc1nc(Nc2ccc3c(cnn3CCF)c2)c(C(N)=O)cc1F)[C@H](C)N` [Example 006-418, 6-(((2S,3R)-2-aminoheptan-3-yl)amino)-5-fluoro-2-((1-(2-fluoroethyl)-1H-indazol-5-yl)amino)nicotinamide] are < 10 nM and 65 to 130 nM.
With `C[C@H](N)[C@@H](CC1CC1)Nc1nc(Nc2ccc3c(cnn3CCF)c2)c(C(N)=O)cc1F` [Example 006-420, 6-(((2R,3S)-3-amino-1-cyclopropylbutan-2-yl)amino)-5-fluoro-2-((1-(2-fluoroethyl)-1H-indazol-5-yl)amino)nicotinamide], the IC50 in experiment [1] was < 10 nM; with THP-1 cells, 65 to 130 nM.

The values above are taken from patent publication US8895585B2, “Nicotinamide derivative or salt thereof” (FUJIFILM Corporation, priority 2010, dated 2014).
